Several values for one entry are separate records, joined by “and”; a condition that tells them apart may be missing. Equal entries are not always repeated.
Test: xn = mol fraction of the nth substance listed

CC(C)(C)O + O
Settings	viscosity
298.15 K, 100 kPa, x1 = 0.1	3.149 mPa·s
298.15 K, 100 kPa, x1 = 0.25	4.729 mPa·s
298.15 K, 100 kPa, x1 = 0.3	4.782 mPa·s
298.15 K, 100 kPa, x1 = 0.4	4.889 mPa·s
298.15 K, 100 kPa, x1 = 0.5	4.646 mPa·s
298.15 K, 100 kPa, x1 = 0.75	4.225 mPa·s
298.15 K, 101 kPa, x1 = 0.026	1.506 mPa·s
298.15 K, 101 kPa, x1 = 0.057	2.309 mPa·s
298.15 K, 101 kPa, x1 = 0.094	3.123 mPa·s
298.15 K, 101 kPa, x1 = 0.14	3.797 mPa·s
298.15 K, 101 kPa, x1 = 0.2	4.311 mPa·s
298.15 K, 101 kPa, x1 = 0.27	4.715 mPa·s
298.15 K, 101 kPa, x1 = 0.36	4.835 mPa·s
298.15 K, 101 kPa, x1 = 0.49	4.73 mPa·s
298.15 K, 101 kPa, x1 = 0.69	4.355 mPa·s
298.15 K, 101.33 kPa, x1 = 0.02	1.315 mPa·s and 1.33 mPa·s and 1.27 mPa·s
298.15 K, 101.33 kPa, x1 = 0.0206	1.337 mPa·s
298.15 K, 101.33 kPa, x1 = 0.026	1.52 mPa·s and 1.45 mPa·s
298.15 K, 101.33 kPa, x1 = 0.0397	1.85 mPa·s
298.15 K, 101.33 kPa, x1 = 0.04	1.89 mPa·s and 1.79 mPa·s
298.15 K, 101.33 kPa, x1 = 0.0447	2.015 mPa·s
298.15 K, 101.33 kPa, x1 = 0.057	2.35 mPa·s and 2.19 mPa·s
298.15 K, 101.33 kPa, x1 = 0.06	2.379 mPa·s and 2.42 mPa·s and 2.26 mPa·s
298.15 K, 101.33 kPa, x1 = 0.0745	2.78 mPa·s
298.15 K, 101.33 kPa, x1 = 0.0798	2.818 mPa·s
298.15 K, 101.33 kPa, x1 = 0.094	3.16 mPa·s and 2.97 mPa·s
298.15 K, 101.33 kPa, x1 = 0.1	3.26 mPa·s and 3.05 mPa·s
298.15 K, 101.33 kPa, x1 = 0.101	3.238 mPa·s
298.15 K, 101.33 kPa, x1 = 0.1121	3.55 mPa·s
298.15 K, 101.33 kPa, x1 = 0.1181	3.532 mPa·s
298.15 K, 101.33 kPa, x1 = 0.139	3.88 mPa·s and 3.66 mPa·s
298.15 K, 101.33 kPa, x1 = 0.1395	3.842 mPa·s
298.15 K, 101.33 kPa, x1 = 0.1574	4.288 mPa·s
298.15 K, 101.33 kPa, x1 = 0.1609	4.176 mPa·s
298.15 K, 101.33 kPa, x1 = 0.196	4.47 mPa·s and 4.41 mPa·s
298.15 K, 101.33 kPa, x1 = 0.198	4.441 mPa·s
298.15 K, 101.33 kPa, x1 = 0.2199	4.888 mPa·s
298.15 K, 101.33 kPa, x1 = 0.267	4.89 mPa·s and 4.86 mPa·s
298.15 K, 101.33 kPa, x1 = 0.3027	4.984 mPa·s
298.15 K, 101.33 kPa, x1 = 0.3035	5.292 mPa·s
298.15 K, 101.33 kPa, x1 = 0.362	4.99 mPa·s and 4.96 mPa·s
298.15 K, 101.33 kPa, x1 = 0.4285	5.484 mPa·s
298.15 K, 101.33 kPa, x1 = 0.4313	5.285 mPa·s
298.15 K, 101.33 kPa, x1 = 0.4315	5.316 mPa·s
298.15 K, 101.33 kPa, x1 = 0.493	4.86 mPa·s and 4.86 mPa·s
298.15 K, 101.33 kPa, x1 = 0.4939	5.199 mPa·s
298.15 K, 101.33 kPa, x1 = 0.5001	4.811 mPa·s
298.15 K, 101.33 kPa, x1 = 0.5965	4.912 mPa·s
298.15 K, 101.33 kPa, x1 = 0.686	4.48 mPa·s and 4.5 mPa·s
298.15 K, 101.33 kPa, x1 = 0.6961	4.646 mPa·s
298.15 K, 101.33 kPa, x1 = 0.6976	4.409 mPa·s
298.15 K, 101.33 kPa, x1 = 0.7888	4.392 mPa·s
298.15 K, 101.33 kPa, x1 = 0.7907	4.397 mPa·s
298.15 K, 101.33 kPa, x1 = 0.7931	4.254 mPa·s
298.15 K, 101.33 kPa, x1 = 0.822	4.27 mPa·s and 4.28 mPa·s
298.15 K, 101.33 kPa, x1 = 0.8932	4.308 mPa·s
298.15 K, 101.33 kPa, x1 = 0.9088	4.222 mPa·s
298.15 K, 101.33 kPa, x1 = 0.9422	4.288 mPa·s
298.15 K, 101.33 kPa, x1 = 0.96	4.37 mPa·s and 4.41 mPa·s
298.15 K, 101.33 kPa, x1 = 0.9734	4.408 mPa·s
303 K, 101 kPa, x2 = 0.3	3.527 mPa·s
303 K, 101 kPa, x2 = 0.5	3.881 mPa·s
303 K, 101 kPa, x2 = 0.65	3.975 mPa·s
303 K, 101 kPa, x2 = 0.91	2.475 mPa·s
303 K, 101 kPa, x2 = 0.95	1.772 mPa·s
303.2 K, 101.33 kPa, x2 = 0.05	3.236 mPa·s
303.2 K, 101.33 kPa, x2 = 0.1	3.214 mPa·s
303.2 K, 101.33 kPa, x2 = 0.15	3.247 mPa·s
303.2 K, 101.33 kPa, x2 = 0.2	3.309 mPa·s
303.2 K, 101.33 kPa, x2 = 0.3	3.455 mPa·s
303.2 K, 101.33 kPa, x2 = 0.4	3.599 mPa·s
303.2 K, 101.33 kPa, x2 = 0.5	3.743 mPa·s
303.2 K, 101.33 kPa, x2 = 0.6	3.877 mPa·s
303.2 K, 101.33 kPa, x2 = 0.7	3.836 mPa·s
303.2 K, 101.33 kPa, x2 = 0.8	3.541 mPa·s
303.2 K, 101.33 kPa, x2 = 0.85	3.182 mPa·s
303.2 K, 101.33 kPa, x2 = 0.9	2.604 mPa·s
303.2 K, 101.33 kPa, x2 = 0.95	1.738 mPa·s
304 K, 101 kPa, x2 = 0.75	3.646 mPa·s
305 K, 101 kPa, x2 = 0.1	3.026 mPa·s
308.15 K, 101 kPa, x1 = 0.05	1.541 mPa·s
308.15 K, 101 kPa, x1 = 0.1	2.188 mPa·s
308.15 K, 101 kPa, x1 = 0.2	2.951 mPa·s
308.15 K, 101 kPa, x1 = 0.3	3.186 mPa·s
308.15 K, 101 kPa, x1 = 0.4	3.219 mPa·s
308.15 K, 101 kPa, x1 = 0.5	3.116 mPa·s
308.15 K, 101 kPa, x1 = 0.6	2.973 mPa·s
308.15 K, 101 kPa, x1 = 0.7	2.837 mPa·s
308.15 K, 101 kPa, x1 = 0.8	2.701 mPa·s
308.15 K, 101 kPa, x1 = 0.9	2.635 mPa·s
308.15 K, 101 kPa, x1 = 0.95	2.606 mPa·s
313 K, 101 kPa, x2 = 0.1	2.146 mPa·s
313 K, 101 kPa, x2 = 0.3	2.33 mPa·s
313 K, 101 kPa, x2 = 0.5	2.586 mPa·s
313 K, 101 kPa, x2 = 0.65	2.674 mPa·s
313 K, 101 kPa, x2 = 0.75	2.587 mPa·s
313 K, 101 kPa, x2 = 0.91	1.747 mPa·s
313 K, 101 kPa, x2 = 0.95	1.287 mPa·s
313.15 K, 101 kPa, x1 = 0.05	1.311 mPa·s
313.15 K, 101 kPa, x1 = 0.07	1.54 mPa·s
313.15 K, 101 kPa, x1 = 0.1	1.84 mPa·s
313.15 K, 101 kPa, x1 = 0.2	2.453 mPa·s
313.15 K, 101 kPa, x1 = 0.3	2.615 mPa·s
313.15 K, 101 kPa, x1 = 0.4	2.618 mPa·s
313.15 K, 101 kPa, x1 = 0.5	2.534 mPa·s
323 K, 101 kPa, x2 = 0.1	1.471 mPa·s
323 K, 101 kPa, x2 = 0.3	1.623 mPa·s
323 K, 101 kPa, x2 = 0.5	1.809 mPa·s
323 K, 101 kPa, x2 = 0.65	1.889 mPa·s
323 K, 101 kPa, x2 = 0.75	1.85 mPa·s
323 K, 101 kPa, x2 = 0.91	1.306 mPa·s
323 K, 101 kPa, x2 = 0.95	0.9856 mPa·s
323.15 K, 100 kPa, x1 = 0.1	1.273 mPa·s
323.15 K, 100 kPa, x1 = 0.3	1.834 mPa·s
323.15 K, 100 kPa, x1 = 0.4	1.833 mPa·s
323.15 K, 100 kPa, x1 = 0.5	1.696 mPa·s
323.15 K, 100 kPa, x1 = 0.75	1.429 mPa·s

Reference: the CheMixHub viscosity set
